Data: PubChem BioAssay AID1963863 (Molecular Pharmacology Branch, DTP, NCI, 2024)
pIC50: −log10 of the molar value. Several values for one entry are separate records, joined by “and”; a condition that tells them apart may be missing. Equal entries are not always repeated.

Test system: 931267-113-T-J1-PDC KRAS spheroid with HUVEC/MSC, viability
Test: Anticancer human tumor 931267-113-T-J1-PDC patient-derived colon adenocarcinoma cell line growth inhibition [KRAS2]
Details: for viability, T/C: stronger effect = lower value; for IC50: compound alone
Outline: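 Combination screen of spheroid viability in tumor-cell co-cultures with endothelial (HUVEC) and mesenchymal stem cell stroma. Each agent was tested in half-log dilutions, topping at clinical Cmax or at 10 microM without a known Cmax.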

[1] = curve of first compound, second compound 0.1 µM
[2] = curve of first compound, second compound 0.316 µM
[3] = curve of first compound, second compound 1 µM
[4] = curve of first compound, second compound 3.16 µM
[5] = curve of first compound, second compound 10 µM
[6] = second compound 0.1 µM, first compound 0.0316 µM
[7] = second compound 0.1 µM, first compound 0.1 µM
[8] = second compound 0.1 µM, first compound 0.316 µM
[9] = second compound 0.1 µM, first compound 1 µM
[10] = second compound 0.1 µM, first compound 3.16 µM
[11] = second compound 0.1 µM, first compound 10 µM
[12] = second compound 0.316 µM, first compound 0.0316 µM
[13] = second compound 0.316 µM, first compound 0.1 µM
[14] = second compound 0.316 µM, first compound 0.316 µM
[15] = second compound 0.316 µM, first compound 1 µM
[16] = second compound 0.316 µM, first compound 3.16 µM
[17] = second compound 0.316 µM, first compound 10 µM
[18] = second compound 1 µM, first compound 0.0316 µM
[19] = second compound 1 µM, first compound 0.1 µM
[20] = second compound 1 µM, first compound 0.316 µM
[21] = second compound 1 µM, first compound 1 µM
[22] = second compound 1 µM, first compound 3.16 µM
[23] = second compound 1 µM, first compound 10 µM
[24] = second compound 3.16 µM, first compound 0.0316 µM
[25] = second compound 3.16 µM, first compound 0.1 µM
[26] = second compound 3.16 µM, first compound 0.316 µM
[27] = second compound 3.16 µM, first compound 1 µM
[28] = second compound 3.16 µM, first compound 3.16 µM
[29] = second compound 3.16 µM, first compound 10 µM
[30] = second compound 10 µM, first compound 0.0316 µM
[31] = second compound 10 µM, first compound 0.1 µM
[32] = second compound 10 µM, first compound 0.316 µM
[33] = second compound 10 µM, first compound 1 µM
[34] = second compound 10 µM, first compound 3.16 µM
[35] = second compound 10 µM, first compound 10 µM
[36] = second compound 0.1 µM, first compound 0.01 µM
[37] = second compound 0.316 µM, first compound 0.01 µM
[38] = second compound 1 µM, first compound 0.01 µM
[39] = second compound 3.16 µM, first compound 0.01 µM
[40] = second compound 10 µM, first compound 0.01 µM
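Also: compound exposure lasted 7 days before the readout.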
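For viability, T/C in this document: 100% = DMSO vehicle control viability.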

Compound | pIC50 [1] | pIC50 [2] | pIC50 [3] | pIC50 [4] | pIC50 [5] | viability, T/C [6] | viability, T/C [7] | viability, T/C [8] | viability, T/C [9] | viability, T/C [10] | viability, T/C [12] | viability, T/C [13] | viability, T/C [14] | viability, T/C [15] | viability, T/C [16] | viability, T/C [18] | viability, T/C [19] | viability, T/C [20] | viability, T/C [21] | viability, T/C [22] | other results
CCNC(=O)CC1N=C(c2ccc(Cl)cc2)c2cc(OC)ccc2-n2c(C)nnc21 (stereo not drawn) + CC1OCC2(CCN(c3cnc(Sc4ccnc(N)c4Cl)c(N)n3)CC2)C1N | 6.27 | 6.50 | 6.33 | 6.23 | 6.25 | 80.7% | 90.4% | 51.9% | 46.6% | 30.4% | 80.4% | 60.5% | 58.7% | 27.4% | 34.6% | 69.7% | 68.5% | 51.5% | 40.7% | 31% | viability, T/C [11]: 27.6%; viability, T/C [17]: 21.6%; viability, T/C [23]: 15.8%; viability, T/C [24]: 78.1%; viability, T/C [25]: 59.7%; viability, T/C [26]: 70.8%; viability, T/C [27]: 33%; viability, T/C [28]: 22.1%; viability, T/C [29]: 13.4%; viability, T/C [30]: 87.2%; viability, T/C [31]: 73.4%; viability, T/C [32]: 60.3%; viability, T/C [33]: 40.5%; viability, T/C [34]: 25.8%; viability, T/C [35]: 14.2%
CC(=O)OC12COC1CC(O)C1(C)C(=O)C(O)C3=C(C)C(OC(=O)C(O)C(NC(=O)OC(C)(C)C)c4ccccc4)CC(O)(C(OC(=O)c4ccccc4)C21)C3(C)C (stereo not drawn) + COc1cc2nc(C)nc(NC(C)c3cc(N)cc(C(F)(F)F)c3)c2cc1OC1CCOC1 | < 5.50 | < 5.50 | < 5.50 | < 5.50 | < 5.50 | 77.7% | 81.3% | 83.7% | 92.4% | 106% | 76.3% | 92% | 76.7% | 82.6% | 72.1% | 105% | 88.2% | 88% | 96.7% | 56.9% | viability, T/C [36]: 84.9%; viability, T/C [37]: 88%; viability, T/C [38]: 95%; viability, T/C [39]: 90%; viability, T/C [24]: 107%; viability, T/C [25]: 76.5%; viability, T/C [26]: 83.9%; viability, T/C [27]: 83.8%; viability, T/C [28]: 84.9%; viability, T/C [40]: 98%; viability, T/C [30]: 110%; viability, T/C [31]: 96.2%; viability, T/C [32]: 84.3%; viability, T/C [33]: 72.5%; viability, T/C [34]: 92%
Cn1nccc1Nc1nccc(-c2cc3c(s2)C(C)(C)N(CCN2CCOCC2)C3=O)n1 + CNCc1ccccc1-c1csc(C(C)Nc2nc(C)nc3cc(OC)c(OC)cc23)c1 | 6.49 | 6.36 | 7.05 | > 7.50 | > 7.50 | 73.6% | 71.3% | 44.5% | 34.1% | 6.18% | 76.4% | 75.4% | 60.6% | 21.4% | 4.19% | 56.5% | 51% | 26.6% | 11.2% | 0.39% | viability, T/C [11]: 2.96%; viability, T/C [17]: 1.79%; viability, T/C [23]: 0.15%; viability, T/C [24]: 0.1%; viability, T/C [25]: 0.09%; viability, T/C [26]: 0.08%; viability, T/C [27]: 0.11%; viability, T/C [28]: 0.04%; viability, T/C [29]: 0.11%; viability, T/C [30]: 0.11%; viability, T/C [31]: 0.13%; viability, T/C [32]: 0.13%; viability, T/C [33]: 0.11%; viability, T/C [34]: 0.11%; viability, T/C [35]: 0.42%
CNCc1ccccc1-c1csc(C(C)Nc2nc(C)nc3cc(OC)c(OC)cc23)c1 (stereo not drawn) |  |  |  |  |  |  |  |  |  |  |  |  |  |  |  |  |  |  |  |  | viability, T/C (compound 10 µM): 0.16% [middle of 14 runs]; IC50 (run of 08/26/2021): 1.13 µM [middle of 5 runs]; IC50 (run of 09/02/2021): 952 nM [middle of 5 runs]
Cn1ncnc1[C@H]1c2n[nH]c(=O)c3cc(F)cc(c23)N[C@@H]1c1ccc(F)cc1 |  |  |  |  |  |  |  |  |  |  |  |  |  |  |  |  |  |  |  |  | viability, T/C (compound 0.000316 µM): 102% [middle of 5 runs]; viability, T/C (compound 0.001 µM): 97.8% [middle of 5 runs]; viability, T/C (compound 0.00316 µM): 98.9% [middle of 5 runs]; viability, T/C (compound 0.01 µM): 88.3% [middle of 5 runs]; viability, T/C (compound 0.0316 µM): 94.4% [middle of 5 runs]; pIC50 (curve of compound): < 7.00
COc1cc2nccc(Oc3ccc(NC(=O)C4(C(=O)Nc5ccc(F)cc5)CC4)cc3)c2cc1OC |  |  |  |  |  |  |  |  |  |  |  |  |  |  |  |  |  |  |  |  | viability, T/C (compound 0.316 µM): 96.5% [middle of 5 runs]; viability, T/C (compound 1 µM): 105% [middle of 5 runs]; viability, T/C (compound 3.16 µM): 60.4% [middle of 5 runs]; pIC50 (curve of compound): < 5.00 and 5.21 and 5.00
CC1COCCN1c1cc(-c2ccnn2C)c2ccnc(-c3ccn[nH]3)c2n1 (stereo not drawn) + CNCc1ccccc1-c1csc(C(C)Nc2nc(C)nc3cc(OC)c(OC)cc23)c1 | 7.30 | 7.33 | 7.56 | > 8.00 | > 8.00 | 64.9% | 27.4% | 11.4% | 17.1% | 18% | 64.9% | 20.6% | 14.7% | 16.9% | 15.3% | 48.8% | 19.8% | 7.5% | 10.8% | 6.12% | viability, T/C [36]: 87.4%; viability, T/C [37]: 80.2%; viability, T/C [38]: 58.3%; viability, T/C [39]: 0.07%; viability, T/C [24]: 0.07%; viability, T/C [25]: 0.05%; viability, T/C [26]: 0.04%; viability, T/C [27]: 0.05%; viability, T/C [28]: 0.14%; viability, T/C [40]: 0.16%; viability, T/C [30]: 0.09%; viability, T/C [31]: 0.1%; viability, T/C [32]: 0.1%; viability, T/C [33]: 0.11%; viability, T/C [34]: 1.06%
CC1COCCN1c1cc(-c2ccnn2C)c2ccnc(-c3ccn[nH]3)c2n1 (stereo not drawn) + C=CC(=O)N1CCN(c2nc(=O)n(-c3c(C)ccnc3C(C)C)c3nc(-c4c(O)cccc4F)c(F)cc23)C(C)C1 | 7.38 | 7.30 | 7.35 | 7.27 | 7.55 | 58% | 25.9% | 17.3% | 20% | 19.7% | 68.7% | 22.5% | 18.1% | 19.9% | 20.4% | 59.5% | 27.5% | 21.1% | 22.1% | 22.6% | viability, T/C [36]: 95.5%; viability, T/C [37]: 90.1%; viability, T/C [38]: 122%; viability, T/C [39]: 117%; viability, T/C [24]: 71.4%; viability, T/C [25]: 24.8%; viability, T/C [26]: 18.4%; viability, T/C [27]: 21.8%; viability, T/C [28]: 22.1%; viability, T/C [40]: 92.8%; viability, T/C [30]: 45.1%; viability, T/C [31]: 24.1%; viability, T/C [32]: 23.9%; viability, T/C [33]: 24.2%; viability, T/C [34]: 19.9%
COC(=O)c1ccc2c(C(=Nc3ccc(N(C)C(=O)CN4CCN(C)CC4)cc3)c3ccccc3)c(O)[nH]c2c1 + COc1cc2nc(C)nc(NC(C)c3cc(N)cc(C(F)(F)F)c3)c2cc1OC1CCOC1 | 5.85 | 6.02 | 6.29 | 6.20 | > 7.50 | 88.1% | 97.5% | 69.8% | 71.1% | 0.65% | 77.5% | 68.3% | 55.2% | 50% | 0.3% | 73% | 95.2% | 57.6% | 33.5% | 0.48% | viability, T/C [11]: 0.3%; viability, T/C [17]: 0.83%; viability, T/C [23]: 0.34%; viability, T/C [24]: 95.6%; viability, T/C [25]: 88.3%; viability, T/C [26]: 78.2%; viability, T/C [27]: 32.5%; viability, T/C [28]: 0.32%; viability, T/C [29]: 0.26%; viability, T/C [30]: 7.41%; viability, T/C [31]: 2.82%; viability, T/C [32]: 0.58%; viability, T/C [33]: 0.41%; viability, T/C [34]: 0.41%; viability, T/C [35]: 0.26%
